Source: a compilation of properties of binary mixtures (doi:10.1016/j.molliq.2019.110987)

Assay: xn = mol fraction of the nth substance listed
Settings: 100 kPa

CN(C)C=O + CCCC[P+](C)(CCCC)CCCC.COS(=O)(=O)[O-]
x2 = 0
Settings | speed of sound [m/s] | viscosity [mPa·s]
293.15 K | 1484.1 | 0.867
298.15 K | 1468.9 | 0.813
303.15 K | 1447.2 | 0.764
313.15 K | 1410.2 | 0.684
318.15 K | 1391.2 | 0.663

CCCC[P+](C)(CCCC)CCCC.COS(=O)(=O)[O-] + CN(C)C=O
Settings | speed of sound [m/s] | viscosity [mPa·s]
293.15 K, x1 = 0.0474 | 1486.7 | 1.774
293.15 K, x1 = 0.0765 | 1492.6 | 2.681
293.15 K, x1 = 0.1106 | 1502.8 | 3.495
293.15 K, x1 = 0.1508 | 1513.1 | 5.02
293.15 K, x1 = 0.1991 | 1518.1 | 6.59
293.15 K, x1 = 0.2582 | 1529.5 | 12.72
293.15 K, x1 = 0.5542 | 1551.2 | 145.3
293.15 K, x1 = 0.6717 | 1554.1 | 246
293.15 K, x1 = 0.7768 | 1557.2 | 368
293.15 K, x1 = 0.8253 | 1559.8 | 439
293.15 K, x1 = 0.8837 | 1560.2 | 532
293.15 K, x1 = 1 | 1563.7 | 729
298.15 K, x1 = 0.0474 | 1472.5 | 1.934
298.15 K, x1 = 0.0765 | 1482.5 | 3.021
298.15 K, x1 = 0.1106 | 1491.5 | 4.201
298.15 K, x1 = 0.1508 | 1499.4 | 5.71
298.15 K, x1 = 0.1991 | 1506.2 | 9.12
298.15 K, x1 = 0.2582 | 1511.1 | 17.12
298.15 K, x1 = 0.3321 | 1523.3 | 24.22
298.15 K, x1 = 0.4272 | 1529.1 | 41
298.15 K, x1 = 0.5542 | 1535.5 | 80.9
298.15 K, x1 = 0.6717 | 1538.1 | 164.4
298.15 K, x1 = 0.7768 | 1540.5 | 267
298.15 K, x1 = 0.8253 | 1542.3 | 315
298.15 K, x1 = 0.8837 | 1544 | 389
298.15 K, x1 = 0.9362 | 1545 | 445
303.15 K, x1 = 0.0474 | 1453.5 | 1.154
303.15 K, x1 = 0.1106 | 1471.3 | 3.824
303.15 K, x1 = 0.1508 | 1479.2 | 4.91
303.15 K, x1 = 0.1991 | 1487.8 | 5.73
303.15 K, x1 = 0.2582 | 1497.1 | 11.88
303.15 K, x1 = 0.3321 | 1503.3 | 15.34
303.15 K, x1 = 0.4272 | 1510.1 | 31.14
303.15 K, x1 = 0.5542 | 1519.2 | 44.8
303.15 K, x1 = 0.6717 | 1520.1 | 115.1
303.15 K, x1 = 0.7768 | 1523.5 | 192.4
303.15 K, x1 = 0.8253 | 1525.4 | 233
303.15 K, x1 = 0.9362 | 1528.2 | 325
303.15 K, x1 = 1 | 1529.6 | 381
308.15 K, x1 = 0.0474 | 1434.9 | 2.009
308.15 K, x1 = 0.0765 | 1444.1 | 2.042
308.15 K, x1 = 0.1106 | 1452.2 | 3.858
308.15 K, x1 = 0.1508 | 1461.5 | 4.52
308.15 K, x1 = 0.1991 | 1470.1 | 5.96
308.15 K, x1 = 0.2582 | 1479.6 | 10.08
308.15 K, x1 = 0.3321 | 1485.8 | 13.81
308.15 K, x1 = 0.4272 | 1495.1 | 26.52
308.15 K, x1 = 0.5542 | 1501.1 | 37.9
308.15 K, x1 = 0.7768 | 1507 | 140.5
308.15 K, x1 = 0.8253 | 1509.1 | 170.5
308.15 K, x1 = 0.8837 | 1510.8 | 201
308.15 K, x1 = 0.9362 | 1513.8 | 242
308.15 K, x1 = 1 | 1514.3 | 286
313.15 K, x1 = 0.0765 | 1426.1 | 2.915
313.15 K, x1 = 0.1106 | 1433.2 | 3.012
313.15 K, x1 = 0.1508 | 1444.1 | 4.451
313.15 K, x1 = 0.1991 | 1452.6 | 5.02
313.15 K, x1 = 0.2582 | 1460.2 | 8.85
313.15 K, x1 = 0.3321 | 1469.2 | 13.52
313.15 K, x1 = 0.4272 | 1479.1 | –
313.15 K, x1 = 0.5542 | 1487.8 | 32.59
313.15 K, x1 = 0.6717 | 1489.8 | 66.5
313.15 K, x1 = 0.7768 | 1491.1 | 107.4
313.15 K, x1 = 0.8253 | 1494.8 | 127.5
313.15 K, x1 = 0.8837 | 1496.5 | 152.2
313.15 K, x1 = 0.9362 | 1497.5 | 182.7
318.15 K, x1 = 0.0474 | 1399.2 | 0.955
318.15 K, x1 = 0.0765 | 1409.7 | 1.855
318.15 K, x1 = 0.1106 | 1416.3 | 2.982
318.15 K, x1 = 0.1508 | 1425.5 | 4.147
318.15 K, x1 = 0.1991 | 1434.9 | 6.04
318.15 K, x1 = 0.4272 | 1463.7 | 20.74
318.15 K, x1 = 0.5542 | 1471.8 | 28.42
318.15 K, x1 = 0.6717 | 1475.1 | –
318.15 K, x1 = 0.7768 | 1478.2 | 81.3
318.15 K, x1 = 0.8253 | 1480.1 | 106.5
318.15 K, x1 = 0.8837 | 1482.6 | 127.4
318.15 K, x1 = 0.9362 | 1484.1 | 149.6
318.15 K, x1 = 1 | 1485.7 | 169.1
323.15 K, x1 = 0.0474 | 1382.2 | 1.897
323.15 K, x1 = 0.0765 | 1392.5 | 2.214
323.15 K, x1 = 0.1106 | 1398.2 | 2.469
323.15 K, x1 = 0.1991 | 1417.7 | 4.5
323.15 K, x1 = 0.2582 | 1425.1 | 9.48
323.15 K, x1 = 0.3321 | 1436.2 | 14.54
323.15 K, x1 = 0.4272 | 1445.5 | 19.56
323.15 K, x1 = 0.5542 | 1456 | 25.19
323.15 K, x1 = 0.6717 | 1461.6 | 43.1
323.15 K, x1 = 0.7768 | 1464.9 | –
323.15 K, x1 = 0.8253 | 1466.6 | 100.4
323.15 K, x1 = 0.9362 | 1471.7 | 123
323.15 K, x1 = 1 | 1472 | 133.4
